Source: patent US20120129928A1, “Chlorine-Free Liquid Microbicide Treatment” (University of Georgia Research Foundation, Inc., priority 2010, published 2012)
Read-outs that look alike come from different tables or passages of the source.

Experiments:
[1] = system: spores of Bacillus anthracis Sterne; format: cell-based, Bacillus anthracis Sterne (34F2)
[2] = system: S. typhimurium DT 104; format: cell-based, Salmonella typhimurium DT104; conditions: water, 21° C.
[3] = system: S. enteritidis; experiment: Reduction of S. enteritidis in water treated with organic acids and SDS; format: cell-based, Salmonella enteritidis; conditions: water; for S. enteritidis counts: 21° C.; for Salmonella reduction: contact for 30 minutes
[4] = system: L. monocytogenes; format: cell-based, Listeria monocytogenes; conditions: 21° C.
[5] = system: various yeast species; experiment: Effect of levulinic acids plus SDS at 21° C. on various yeast species; format: cell-based; conditions: for Yeast counts at min: 1: 1 min; for Yeast counts at min: 2: 2 min; for Yeast counts at min: 5: 5 min; for Yeast counts at min: 10: 10 min; for Yeast counts at min: 20: 20 min; for Yeast counts at min: 30: 30 min; for Yeast counts at min: 60: 60 min
[6] = 0 min, listed as 0.5% levulinic acid
[7] = 0 min, listed as 1.0% levulinic acid
[8] = 0 min, listed as 2.0% levulinic acid
[9] = 2 min, listed as 0.5% levulinic acid
[10] = 2 min, listed as 1.0% levulinic acid
[11] = 2 min, listed as 2.0% levulinic acid
[12] = 5 min, listed as 0.5% levulinic acid
[13] = 5 min, listed as 1.0% levulinic acid
[14] = 5 min, listed as 2.0% levulinic acid
[15] = 10 min, listed as 0.5% levulinic acid
[16] = 10 min, listed as 1.0% levulinic acid
[17] = 10 min, listed as 2.0% levulinic acid
[18] = 20 min, listed as 0.5% levulinic acid
[19] = 20 min, listed as 1.0% levulinic acid
[20] = 20 min, listed as 2.0% levulinic acid
[21] = 30 min, listed as 0.5% levulinic acid
[22] = 30 min, listed as 1.0% levulinic acid
[23] = 30 min, listed as 2.0% levulinic acid

CC(=O)CCC(=O)O [levulinic acid]
CFU % recovery (as compared to control flask F) ([1]; Experiment A3, 10 min): 81%
CFU % recovery (as compared to control flask F) ([1]; Experiment A3, 45 min): 55%
CFU % recovery (as compared to control flask F) ([1]; Experiment A3, 90 min): 64%
CFU % recovery (as compared to control flask F) ([1]; Experiment A4 absent heat, RT, 0 min): 89%
CFU % recovery (as compared to control flask F) ([1]; Experiment A4 absent heat, RT, 1 h): 54%
CFU % recovery (as compared to control flask F) ([1]; Experiment A4 absent heat, RT, 2 h): 27%
CFU % recovery (as compared to control flask F) ([1]; Experiment A4 absent heat, RT, 3 h): 30%
CFU % recovery (as compared to control flask F) ([1]; Experiment A4 absent heat, RT, 4 h): 15%
CFU % recovery (as compared to control flask F) ([1]; Experiment A4 with heat, 65° C., 0 min): 70%
CFU % recovery (as compared to control flask F) ([1]; Experiment A4 with heat, 65° C., 1 h): 78%
CFU % recovery (as compared to control flask F) ([1]; Experiment A4 with heat, 65° C., 2 h): 45%
CFU % recovery (as compared to control flask F) ([1]; Experiment A4 with heat, 65° C., 3 h): 33%
CFU % recovery (as compared to control flask F) ([1]; Experiment A4 with heat, 65° C., 4 h): 46%
CFU % recovery (as compared to control flask F) ([1]; Experiment A5 absent heat, RT, 1 h): 80%
CFU % recovery (as compared to control flask F) ([1]; Experiment A5 absent heat, RT, 2 h): 46%
CFU % recovery (as compared to control flask F) ([1]; Experiment A5 absent heat, RT, 3 h): 67%
CFU % recovery (as compared to control flask F) ([1]; Experiment A5 absent heat, RT, 4 h): 37%
CFU % recovery (as compared to control flask F) ([1]; Experiment A5 with heat, 65° C., 0 min): 75%
CFU % recovery (as compared to control flask F) ([1]; Experiment A5 with heat, 65° C., 1 h): 58%
CFU % recovery (as compared to control flask F) ([1]; Experiment A5 with heat, 65° C., 2 h): 34%
CFU % recovery (as compared to control flask F) ([1]; Experiment A5 with heat, 65° C., 3 h): 34%
CFU % recovery (as compared to control flask F) ([1]; Experiment A5 with heat, 65° C., 4 h): 14%
S. typhimurium DT 104 counts ([2]; 0 min): 6.8 log CFU/ml
S. typhimurium DT 104 counts ([2]; 1 min): 6.7 log CFU/ml
S. typhimurium DT 104 counts ([2]; 2 min): 6.6 log CFU/ml
S. typhimurium DT 104 counts ([2]; 5 min): 6.5 log CFU/ml
S. typhimurium DT 104 counts ([2]; 10 min): 6.7 log CFU/ml
S. typhimurium DT 104 counts ([2]; 20 min): 6.6 log CFU/ml
S. typhimurium DT 104 counts ([2]; 30 min): 6.4 log CFU/ml
S. typhimurium DT 104 counts ([2]; 60 min): 5.9 log CFU/ml
S. enteritidis counts ([3]; 0 min, listed as 0.1% levulinic acid): 7.1 log CFU/ml
S. enteritidis counts [3, 6]: 7.1 log CFU/ml
S. enteritidis counts [3, 7]: 6.9 log CFU/ml
S. enteritidis counts [3, 8]: 6.7 log CFU/ml
S. enteritidis counts ([3]; 0 min, listed as 3.0% levulinic acid): 6.6 log CFU/ml
S. enteritidis counts ([3]; 2 min, listed as 0.1% levulinic acid): 7.1 log CFU/ml
S. enteritidis counts [3, 9]: 6.8 log CFU/ml
S. enteritidis counts [3, 10]: 6.7 log CFU/ml
S. enteritidis counts [3, 11]: 6.7 log CFU/ml
S. enteritidis counts ([3]; 2 min, listed as 3.0% levulinic acid): 6.8 log CFU/ml
S. enteritidis counts ([3]; 5 min, listed as 0.1% levulinic acid): 6.9 log CFU/ml
S. enteritidis counts [3, 12]: 6.9 log CFU/ml
S. enteritidis counts [3, 13]: 6.8 log CFU/ml
S. enteritidis counts [3, 14]: 6.7 log CFU/ml
S. enteritidis counts ([3]; 5 min, listed as 3.0% levulinic acid): 6.5 log CFU/ml
S. enteritidis counts ([3]; 10 min, listed as 0.1% levulinic acid): 7.0 log CFU/ml
S. enteritidis counts [3, 15]: 6.9 log CFU/ml
S. enteritidis counts [3, 16]: 6.9 log CFU/ml
S. enteritidis counts [3, 17]: 6.8 log CFU/ml
S. enteritidis counts ([3]; 10 min, listed as 3.0% levulinic acid): 6.2 log CFU/ml
S. enteritidis counts ([3]; 20 min, listed as 0.1% levulinic acid): 6.9 log CFU/ml
S. enteritidis counts [3, 18]: 6.6 log CFU/ml
S. enteritidis counts [3, 19]: 6.9 log CFU/ml
S. enteritidis counts [3, 20]: 6.5 log CFU/ml
S. enteritidis counts ([3]; 20 min, listed as 3.0% levulinic acid): 5.1 log CFU/ml
S. enteritidis counts ([3]; 30 min, listed as 0.1% levulinic acid): 6.9 log CFU/ml
S. enteritidis counts [3, 21]: 6.7 log CFU/ml
S. enteritidis counts [3, 22]: 6.7 log CFU/ml
S. enteritidis counts [3, 23]: 6.0 log CFU/ml
S. enteritidis counts ([3]; 30 min, listed as 3.0% levulinic acid): 3.8 log CFU/ml
Salmonella reduction ([3]; listed as 0.1 to 2.0% by weight levulinic acid): ~1 log CFU/ml
Salmonella reduction ([3]; listed as 1% by weight levulinic acid): ≤ 1 log CFU/ml
Salmonella reduction ([3]; listed as 3% levulinic acid): 3.4 log CFU/ml
Salmonella reduction ([3]; listed as 3.0% levulinic acid): 3.4 log CFU/ml
L. monocytogenes counts ([4]; 0 min): 6.9 ± 0.1 log CFU/ml
L. monocytogenes counts [4, 6]: 6.7 ± 0.2 log CFU/ml
L. monocytogenes counts [4, 7]: 6.8 ± 0.3 log CFU/ml
L. monocytogenes counts [4, 8]: 6.8 ± 0.3 log CFU/ml
L. monocytogenes counts ([4]; 2 min): 6.9 ± 0.2 log CFU/ml
L. monocytogenes counts [4, 9]: 6.7 ± 0.1 log CFU/ml
L. monocytogenes counts [4, 10]: 6.7 ± 0.2 log CFU/ml
L. monocytogenes counts [4, 11]: 6.8 ± 0.2 log CFU/ml
L. monocytogenes counts ([4]; 5 min): 6.9 ± 0.3 log CFU/ml
L. monocytogenes counts [4, 12]: 6.8 ± 0.3 log CFU/ml
L. monocytogenes counts [4, 13]: 6.6 ± 0.3 log CFU/ml
L. monocytogenes counts [4, 14]: 6.9 ± 0.2 log CFU/ml
L. monocytogenes counts ([4]; 10 min): 6.9 ± 0.1 log CFU/ml
L. monocytogenes counts [4, 15]: 6.9 ± 0.2 log CFU/ml
L. monocytogenes counts [4, 16]: 6.6 ± 0.3 log CFU/ml
L. monocytogenes counts [4, 17]: 6.7 ± 0.2 log CFU/ml
L. monocytogenes counts ([4]; 20 min): 6.9 ± 0.3 log CFU/ml
L. monocytogenes counts [4, 18]: 6.7 ± 0.2 log CFU/ml
L. monocytogenes counts [4, 19]: 6.6 ± 0.0 log CFU/ml
L. monocytogenes counts [4, 20]: 6.9 ± 0.2 log CFU/ml
L. monocytogenes counts ([4]; 30 min): 6.8 ± 0.3 log CFU/ml
L. monocytogenes counts [4, 21]: 6.8 ± 0.2 log CFU/ml
L. monocytogenes counts [4, 22]: 6.6 ± 0.3 log CFU/ml
L. monocytogenes counts [4, 23]: 6.8 ± 0.2 log CFU/ml
Yeast counts at min: 1 ([5]; Debaryomyces hansenii): 4.8 log CFU/ml
Yeast counts at min: 2 ([5]; Debaryomyces hansenii): 4.9 log CFU/ml
Yeast counts at min: 5 ([5]; Debaryomyces hansenii): 4.6 log CFU/ml
Yeast counts at min: 10 ([5]; Debaryomyces hansenii): 4.4 log CFU/ml
Yeast counts at min: 20 ([5]; Debaryomyces hansenii): 4.7 log CFU/ml
Yeast counts at min: 30 ([5]; Debaryomyces hansenii): 3.0 log CFU/ml
Yeast counts at min: 60 ([5]; Debaryomyces hansenii): 1.3 log CFU/ml
Yeast counts at min: 1 ([5]; Geotrichum candidum): 4.4 log CFU/ml
Yeast counts at min: 2 ([5]; Geotrichum candidum): 4.4 log CFU/ml
Yeast counts at min: 5 ([5]; Geotrichum candidum): 4.3 log CFU/ml
Yeast counts at min: 10 ([5]; Geotrichum candidum): 4.1 log CFU/ml
Yeast counts at min: 20 ([5]; Geotrichum candidum): 3.8 log CFU/ml
Yeast counts at min: 30 ([5]; Geotrichum candidum): 3.4 log CFU/ml
Yeast counts at min: 60 ([5]; Geotrichum candidum): 2.0 log CFU/ml
Yeast counts at min: 1 ([5]; Saccharomyces cerevisiae): 5.3 log CFU/ml
Yeast counts at min: 2 ([5]; Saccharomyces cerevisiae): 5.5 log CFU/ml
Yeast counts at min: 5 ([5]; Saccharomyces cerevisiae): 5.4 log CFU/ml
Yeast counts at min: 10 ([5]; Saccharomyces cerevisiae): 5.3 log CFU/ml
Yeast counts at min: 20 ([5]; Saccharomyces cerevisiae): 5.3 log CFU/ml
Yeast counts at min: 30 ([5]; Saccharomyces cerevisiae): 5.5 log CFU/ml
Yeast counts at min: 60 ([5]; Saccharomyces cerevisiae): 5.0 log CFU/ml
